Biological target: T1, ULK1 (Homo sapiens, UniProt O75385)
T1 sequence (O75385 1-1050): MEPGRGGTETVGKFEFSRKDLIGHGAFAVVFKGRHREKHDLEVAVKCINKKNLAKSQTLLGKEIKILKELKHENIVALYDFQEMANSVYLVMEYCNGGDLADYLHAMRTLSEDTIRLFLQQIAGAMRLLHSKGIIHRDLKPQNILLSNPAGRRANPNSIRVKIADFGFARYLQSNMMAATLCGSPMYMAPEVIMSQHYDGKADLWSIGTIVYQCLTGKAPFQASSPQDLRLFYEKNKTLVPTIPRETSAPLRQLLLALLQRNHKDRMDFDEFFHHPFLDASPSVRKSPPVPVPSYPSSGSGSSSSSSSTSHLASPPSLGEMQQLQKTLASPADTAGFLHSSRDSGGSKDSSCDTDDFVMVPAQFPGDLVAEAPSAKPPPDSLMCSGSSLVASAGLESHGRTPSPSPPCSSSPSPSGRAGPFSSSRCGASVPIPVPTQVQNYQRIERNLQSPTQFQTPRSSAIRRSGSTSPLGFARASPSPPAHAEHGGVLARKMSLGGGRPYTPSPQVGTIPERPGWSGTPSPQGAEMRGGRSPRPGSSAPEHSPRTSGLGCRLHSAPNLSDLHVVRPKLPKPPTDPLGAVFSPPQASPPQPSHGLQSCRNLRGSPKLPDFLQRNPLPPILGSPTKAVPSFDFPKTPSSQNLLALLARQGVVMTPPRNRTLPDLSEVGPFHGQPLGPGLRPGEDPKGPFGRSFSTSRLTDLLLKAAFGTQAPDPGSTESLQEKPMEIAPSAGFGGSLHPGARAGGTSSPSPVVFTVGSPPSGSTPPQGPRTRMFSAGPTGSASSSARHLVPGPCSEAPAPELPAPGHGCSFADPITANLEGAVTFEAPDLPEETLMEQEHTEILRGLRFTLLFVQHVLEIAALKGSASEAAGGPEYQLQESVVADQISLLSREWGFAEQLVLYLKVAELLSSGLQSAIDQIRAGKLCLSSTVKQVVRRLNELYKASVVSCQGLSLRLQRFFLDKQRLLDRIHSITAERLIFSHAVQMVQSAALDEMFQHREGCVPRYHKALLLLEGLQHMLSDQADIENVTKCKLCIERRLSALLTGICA
Assay: ULK1 inhibition assay
Type: biochemical
Conditions: * = tested as a mixture of regioisomers

| Structure (SMILES) | IC50 [µM] |
| --- | --- |
| O=C1CCc2cc(Nc3ncc(C(F)(F)F)c(Nc4ccc5[nH]ncc5c4)n3)ccc2N1 [Compound 185] | < 0.2 |
| COc1cc(Nc2ncc(Br)c(NC3CC3)n2)cc(OC)c1OC [Compound 186] | < 0.2 |
| COc1cc(Nc2ncc(C(F)(F)F)c(NC3CC3)n2)cc(OC)c1OC [Compound 187] | < 0.2 |
| FC(F)(F)c1cnc(Nc2ccc3nn[nH]c3c2)nc1NC1CC1 [Compound 188] | < 0.2 |
| Oc1ncc(C(F)(F)F)c(NC2CC2)n1 [Compound 189] | > 2 |
| FC(F)(F)c1cnc(Nc2ccc3c(c2)OCCCO3)nc1NC1CC1 [Compound 190] | < 0.2 |
| O=c1[nH]c2ncc(Nc3nc(Nc4ccc5c(c4)OCCO5)ncc3Br)cc2o1 [Compound 192] | < 0.2 |
| O=C1CCc2cc(Nc3ncc(C(F)(F)F)c(NC4COC4)n3)ccc2N1 [Compound 193] | > 2 |
| FC(F)(F)c1cnc(Nc2cnc3[nH]ccc3c2)nc1NC1COC1 [Compound 194] | < 0.2 |
| FC(F)(F)c1cnc(Nc2cccnc2)nc1NC1CC1 [Compound 196] | > 2 |
| O=C1CCc2cc(Nc3ncc(C(F)(F)F)c(NCCO)n3)ccc2N1 [Compound 197] | < 0.2 |
| O=C1CCc2cc(Nc3nccc(NC4CC4)n3)ccc2N1 [Compound 200] | > 2 |
| CNC(=O)c1ccccc1Nc1nc(Nc2cnc3[nH]ccc3c2)ncc1C(F)(F)F [Compound 201] | < 0.2 |
| CN(c1nc(Nc2ccc3c(c2)CCC(=O)N3)ncc1C(F)(F)F)C1CC1 [Compound 202] | < 0.2 |
| FC(F)(F)c1cnc(Nc2cncnc2)nc1NC1CC1 [Compound 203] | < 0.2 |
| c1cc(NC2CC2)nc(Nc2cnc3[nH]ccc3c2)n1 [Compound 204] | > 2 |
| FC(F)(F)c1cnc(Nc2ccc3[nH]ccc3c2)nc1NC1CC1 [Compound 206] | < 0.2 |
| Nc1nc(Nc2ccc3c(c2)CCC(=O)N3)ncc1C(F)(F)F [Compound 209] | 0.2 to 2 |
| FC(F)(F)c1cnc(Nc2ccc3c(c2)OCO3)nc1NC1CC1 [Compound 213] | < 0.2 |
| O=C1CCc2cc(Nc3ncc(C(F)(F)F)c(N4CC(F)(F)C4)n3)ccc2N1 [Compound 215] | < 0.2 |
| O=C1CCc2cc(Nc3ncc(C(F)(F)F)c(NCC4CC4)n3)ccc2N1 [Compound 216] | < 0.2 |
| Nc1nc(Nc2cnc3[nH]ccc3c2)ncc1C(F)(F)F [Compound 217] | > 2 |
| COC(=O)CNc1nc(Nc2ccc3c(c2)CCC(=O)N3)ncc1C(F)(F)F [Compound 218] | > 2 |
| CCONc1nc(Nc2ccc3c(c2)CCC(=O)N3)ncc1C(F)(F)F [Compound 219] | > 2 |
| c1cc(NC2CC2)nc(Nc2ccc3c(c2)OCCO3)n1 [Compound 224] | > 2 |
| O=C1CCc2cc(Nc3ncnc(NC4CC4)n3)ccc2N1 [Compound 225] | > 2 |
| COC(=O)[C@@H]1CCCN1c1nc(Nc2ccc3c(c2)CCC(=O)N3)ncc1C(F)(F)F [Compound 227] | 0.2 to 2 |

| Structure (SMILES) | IC50 [µM] |
| --- | --- |
| FC(F)(F)c1cnc(N2CCCC2c2cccnc2)nc1NC1CC1 (stereo not drawn) [Compound 228] | > 2 |
| O=c1[nH]c2ccc(Nc3nccc(NC4CC4)n3)cc2[nH]1 [Compound 232] | > 2 |
| O=c1[nH]c2ccc(Nc3ncc(Br)c(Nc4ccc5[nH]c(=O)[nH]c5c4)n3)cc2[nH]1 [Compound 233] | < 0.2 |
| O=c1[nH]c2ccc(Nc3ncc(Br)c(NC4CC4)n3)cc2[nH]1 [Compound 236] | < 0.2 |
| CNS(=O)(=O)c1ccccc1Nc1nc(Nc2cc(OC)c(OC)c(OC)c2)ncc1Br [Compound 237] | 0.2 to 2 |
| CNC(=O)c1ccccc1Oc1ccnc(Nc2cc(OC)c(OC)c(OC)c2)n1 [Compound 239] | > 2 |
| O=C1Cc2cc(Nc3ncc(C(F)(F)F)c(NC4CC4)n3)ccc2N1 [Compound 240] | < 0.2 |
| CNC(=O)c1cccc(Oc2nc(Nc3cc(OC)c(OC)c(OC)c3)ncc2Br)c1 [Compound 242] | 0.2 to 2 |
| COc1cc(Nc2ncc(Br)c(Oc3ccccc3C(=O)N(C)C)n2)cc(OC)c1OC [Compound 245] | < 0.2 |
| Oc1ccc(CCNc2ncc(C(F)(F)F)c(NC3CC3)n2)cc1 [Compound 246] | 0.2 to 2 |
| C[C@@H]1COCCN1c1nc(Nc2ccc3c(c2)CCC(=O)N3)ncc1C(F)(F)F [Compound 247] | < 0.2 |
| COc1cc(Nc2ncc(Br)c(Oc3ccccc3C(N)=O)n2)cc(OC)c1OC [Compound 249] | < 0.2 |
| CNC(=O)c1cccc(OC)c1Oc1nc(Nc2cc(OC)c(OC)c(OC)c2)ncc1Br [Compound 252] | < 0.2 |
| CNC(=O)c1c(O)cccc1Oc1nc(Nc2cc(OC)c(OC)c(OC)c2)ncc1Br [Compound 257] | < 0.2 |
| FC1(F)Oc2ccc(Nc3ncc(C(F)(F)F)c(NC4CC4)n3)cc2O1 [Compound 258] | > 2 |
| CCC(=O)c1ccccc1Oc1nc(Nc2cc(OC)c(OC)c(OC)c2)ncc1Br [Compound 260] | < 0.2 |
| O=C1CCc2cc(Nc3ncc(C(F)(F)F)c(OCCNC(=O)OCc4ccccc4)n3)ccc2N1 [Compound 261] | > 2 |
| FC(F)(F)c1cnc(NCc2cccc3ccccc23)nc1NC1CC1 [Compound 262] | > 2 |
| O=C1CCc2cc(Nc3nc(NC4CC4)c4ccccc4n3)ccc2N1 [Compound 263] | > 2 |
| FC(F)(F)c1cnc(Nc2ccc3ncccc3c2)nc1NC1CC1 [Compound 264] | < 0.2 |
| COc1cc(Nc2ncc(Br)c(Oc3ccccc3)n2)cc(OC)c1OC [Compound 266] | < 0.2 |
| CNC(=O)c1cccc(Oc2nc(Nc3ccc4c(c3)CCC(=O)N4)ncc2Br)c1 [Compound 268] | 0.2 to 2 |
| COc1cc(Nc2ncc(Br)c(Oc3ccccc3C(=O)NC3CC3)n2)cc(OC)c1OC [Compound 270] | 0.2 to 2 |
| O=C1CCc2cc(Nc3ncc(C(F)(F)F)c(Nc4cc(C5CCC5)[nH]n4)n3)ccc2N1 [Compound 271] | < 0.2 |
| COCc1ccccc1Oc1nc(Nc2cc(OC)c(OC)c(OC)c2)ncc1Br [Compound 274] | < 0.2 |
| FC(F)(F)c1cnc(Nc2cnc3ccccc3c2)nc1NC1CC1 [Compound 275] | < 0.2 |

Other lines, results leading:

| IC50 [µM] | Structure (SMILES) |
| --- | --- |
| < 0.2 | CC(Cl)CNc1nc(Nc2ccc3c(c2)CCC(=O)N3)ncc1C(F)(F)F (stereo not drawn) [Compound 183b] |
| > 2 | CC(CCl)Nc1nc(Nc2ccc3c(c2)CCC(=O)N3)ncc1C(F)(F)F (stereo not drawn) [Compound 183c] |
| 0.2 to 2 | CN(c1ccccc1)c1nc(Nc2ccc3c(c2)CCC(=O)N3)ncc1C(F)(F)F [Compound 184a] |
| < 0.2 | CN(c1ccccc1)c1ncc(C(F)(F)F)c(Nc2ccc3c(c2)CCC(=O)N3)n1 [Compound 184b] |
| 0.2 to 2 | O=C1CCc2cc(Nc3ncc(C(F)(F)F)c(NC4CNC4)n3)ccc2N1 [Compound 198a] |
| > 2 | O=C1CCc2cc(Nc3ncc(C(F)(F)F)c(NC4CN(c5nc(Nc6ccc7c(c6)CCC(=O)N7)ncc5C(F)(F)F)C4)n3)ccc2N1 [Compound 198b] |
| < 0.2 | FC(F)(F)c1cnc(Nc2ccc3ncoc3c2)nc1NC1CC1 [Compound 208a] |
| < 0.2 | OC1Nc2ccc(Nc3ncc(C(F)(F)F)c(NC4CC4)n3)cc2O1 (stereo not drawn) [Compound 208b] |
| > 2 | O=C1CCc2cc(Nc3ncc(C(F)(F)F)c(N(CCO)CCO)n3)ccc2N1 [Compound 212a] |
| 0.2 to 2 | O=C1CCc2cc(Nc3ncc(C(F)(F)F)c(OCCNCCO)n3)ccc2N1 [Compound 212b] |
| 0.2 to 2 | FC(F)(F)c1cnc(Nc2ccon2)nc1NC1CC1 [Compound 214a] |
| > 2 | N=c1ccon1-c1ncc(C(F)(F)F)c(NC2CC2)n1 [Compound 214b] |
| > 2 | CC1(Nc2nc(Nc3ccc4c(c3)CCC(=O)N4)ncc2C(F)(F)F)COC1 [Compound 220a] |
| < 0.2 | CN(C)c1nc(Nc2ccc3c(c2)CCC(=O)N3)ncc1C(F)(F)F [Compound 220b] |
| > 2 | COCC(C)(CN(C)C)Nc1nc(Nc2ccc3c(c2)CCC(=O)N3)ncc1C(F)(F)F (stereo not drawn) [Compound 220c] |
| < 0.2 | FC(F)(F)c1cnc(Nc2ccnnc2)nc1NC1CC1 [Compound 221a] |
| < 0.2 | O=C1CCc2cc(Nc3ncc(C(F)(F)F)c(OC4COC4)n3)ccc2N1 [Compound 231a] |
| > 2 | O=C1CCc2cc(Nc3ncc(C(F)(F)F)c(O)n3)ccc2N1 [Compound 231b] |
| > 2 | CNC(=O)c1ccccc1Oc1nc(Nc2cc(OC)c(OC)c(OC)c2)ncc1Cl [Compound 234a] |
| 0.2 to 2 | COc1cc(Nc2ncc(Cl)c(N(C)C(=O)c3ccccc3O)n2)cc(OC)c1OC [Compound 234b] |
| < 0.2 | COc1cc(Nc2ncc(Br)c(Oc3ccccc3NC(C)=O)n2)cc(OC)c1OC [Compound 254a] |
| < 0.2 | COc1cc(Nc2ncc(Br)c(Oc3ccccc3N)n2)cc(OC)c1OC [Compound 254b] |

Source: patent publication US20230130766A1 (SALK INSTITUTE FOR BIOLOGICAL STUDIES, priority 2020, published 2023)
